The results in this text go back to US8309558B2, “Compounds for the treatment of hepatitis C” (Bristol-Myers Squibb Company, priority 2008, dated 2012).

Usually IC50 stands for the concentration that inhibits the measured activity by half. A word on the EC50: it is the midpoint of the concentration-response curve.

Like-named read-outs stand apart in the source and are kept apart here.

Assay [1] deals with T1, HCV NS5B RdRp genotype 1b (Hepatitis C virus genotype 1b, UniProt Q9WMX2).
T1 construct: The protein was expressed with an 18 amino acid C-terminal truncation to enhance the solubility; made in house; host or cells: E. coli BL21(DE3), pET21a vector
T1 sequence (Q9WMX2 2420-2992): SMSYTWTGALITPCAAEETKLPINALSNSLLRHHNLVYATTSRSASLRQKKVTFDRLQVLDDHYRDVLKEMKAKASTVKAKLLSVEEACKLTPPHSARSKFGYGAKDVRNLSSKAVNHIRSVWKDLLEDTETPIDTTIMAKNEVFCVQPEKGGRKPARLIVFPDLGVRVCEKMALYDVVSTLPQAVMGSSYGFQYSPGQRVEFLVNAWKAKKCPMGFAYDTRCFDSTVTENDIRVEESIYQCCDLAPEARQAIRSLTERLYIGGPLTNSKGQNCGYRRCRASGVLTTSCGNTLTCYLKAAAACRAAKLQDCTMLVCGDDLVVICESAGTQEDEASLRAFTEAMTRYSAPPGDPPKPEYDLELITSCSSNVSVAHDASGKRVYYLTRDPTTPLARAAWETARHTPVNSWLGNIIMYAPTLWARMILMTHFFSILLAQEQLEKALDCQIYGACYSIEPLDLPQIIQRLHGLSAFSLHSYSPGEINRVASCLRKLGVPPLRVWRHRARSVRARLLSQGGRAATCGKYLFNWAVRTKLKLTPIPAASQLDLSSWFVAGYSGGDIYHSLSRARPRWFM
In words: Standard HCV NS5B RdRp enzyme assay. The settings on record: HCV NS5B RdRp genotype 1b, read-out: IC50. The format is biochemical. Summed up:
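C-terminally truncated (18 aa) genotype 1b NS5B from E. coli, 28 nM, with 6 nM polyA template, 180 nM biotinylated oligo-dT12 primer and 3H-UTP (0.29 μM total UTP). Hepes pH 7.5 buffer with 2% DMSO; 60 min at 30° C. EDTA stop, SPA read-out; IC50 from seven concentrations by four-parameter fit.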

The subject of another assay is HCV replicon cells. In words: HCV replicon FRET / luciferase assay (96-well plates). The format is cell-based. The settings on record: Hepatitis C virus, HCV replicon, read-out: EC50. Summed up:
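Trypsinized replicon cells were seeded with compound titrations and incubated at 37 °C for various times. Alamar blue was added to gauge toxicity. Plates were then rinsed and either lysed with FRET peptide reagent for kinetic fluorescence reading or switched to phenol red-free DMEM for luciferase measurement.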
(In general: In antiviral work, replicon cells carry a viral genome segment that copies itself.)

For `CNC(=O)c1c(-c2ccc(F)cc2)oc2cc([N+](=O)[O-])c(-c3cccc(C(=O)NCC(C)C)c3)cc12`, the IC50 in assay [1] (Table 1b) is less than 250 nM. Besides, the concentration giving a half-maximal response (EC50) with HCV replicon cells (Table 1b) is less than 250 nM.
Regarding `CNC(=O)c1c(-c2ccc(F)cc2)oc2ccc(-c3cc(C(=O)NCC(C)C)ccc3OC3CCCC3)cc12`, the IC50 in assay [1] (Table 1b) was greater than 10000 nM. Also, the concentration giving a half-maximal response (EC50) in the assay with HCV replicon cells (Table 1b) was 1000 to 10000 nM.
On the same counts, the results for `CNC(=O)c1c(-c2ccc(F)cc2)oc2ccc(-c3ccc(F)c(C(=O)NC(C)(C)C)c3)cc12` are less than 250 nM and less than 250 nM.
With `CNC(=O)c1c(-c2ccc(F)cc2)oc2cc(NS(C)(=O)=O)c(-c3cc(C(=O)NCC(C)C)ccc3OC)cc12`, the 50% inhibitory concentration (IC50) in assay [1] (Table 1b) is less than 250 nM. The half-maximal effective concentration (EC50) in the assay on HCV replicon cells (Table 1b) is less than 250 nM.
`CNC(=O)c1c(-c2ccc(F)cc2)oc2ccc(-c3cccc(-c4nc(-c5ccccc5)c[nH]4)c3)cc12`: the IC50 in assay [1] (Table 1b) fell in the range of 250 to 1000 nM. Besides, in the assay with HCV replicon cells (Table 1b), the EC50 was less than 250 nM.
For the molecule `CNC(=O)c1c(-c2ccc(F)cc2)oc2ccc(-c3cccc(C(=O)NC(C)(C)C(=O)Nc4nncs4)c3)cc12`, the IC50 in assay [1] (Table 1b) is less than 250 nM. The concentration giving a half-maximal response (EC50) with HCV replicon cells (Table 1b) is less than 250 nM.
For `CNC(=O)c1c(-c2ccc(F)cc2)oc2ccc(-c3cccc(-c4ccn[nH]4)c3)cc12`, the IC50 in assay [1] (Table 1b) lay in the range of 1000 to 10000 nM. For the same molecule, the EC50 with HCV replicon cells (Table 1b) was 1000 to 10000 nM.
On to `CNC(=O)c1c(-c2ccc(F)cc2)oc2ccc(-c3cccc(-c4ccnn4Cc4ccccc4)c3)cc12`, for which, in assay [1] (Table 1b), the half-inhibitory concentration (IC50) is less than 250 nM. The EC50 in the assay on HCV replicon cells (Table 1b) was less than 250 nM.
For `CNC(=O)c1c(-c2ccc(F)cc2)oc2ccc(-c3c(C)ccc(C(=O)O)c3OC)cc12`, the IC50 in assay [1] (Table 1b) was 1000 to 10000 nM. Besides, the concentration for a half-maximal effect (EC50) in the assay with HCV replicon cells (Table 1b) was greater than 10000 nM.
For the molecule `CNC(=O)c1c(-c2ccc(F)cc2)oc2ccc(-c3cccc(C(=O)NC(C)(C)C(=O)Nc4cc(C)[nH]n4)c3)cc12`, the 50% inhibitory concentration (IC50) in assay [1] (Table 1b) is less than 250 nM. Also, the half-maximal effective concentration (EC50) in the assay on HCV replicon cells (Table 1b) is less than 250 nM.
On to `CNC(=O)c1c(-c2ccc(F)cc2)oc2ccc(-c3cccc(C(=O)NC(C)(C)C(=O)Nc4cc(C)no4)c3)cc12`, for which, in assay [1] (Table 1b), the IC50 was less than 250 nM. Also, in the assay on HCV replicon cells (Table 1b), the EC50 is less than 250 nM.
Regarding `CNC(=O)c1c(-c2ccc(F)cc2)oc2ccc(-c3cccc(C(=O)NC(C)(C)C(=O)Nc4cc(C)on4)c3)cc12`, in assay [1] (Table 1b), the IC50 was less than 250 nM. In addition, the EC50 in the assay on HCV replicon cells (Table 1b) is less than 250 nM.
Take `CNC(=O)c1c(-c2ccc(F)cc2)oc2ccc(-c3cccc(C(=O)NC(C)(C)C(=O)Nc4nccnn4)c3)cc12`: the half-inhibitory concentration (IC50) in assay [1] (Table 1b) was less than 250 nM. In addition, the EC50 in the assay on HCV replicon cells (Table 1b) is less than 250 nM.
Consider `CCC(NC(=O)c1ccc(F)c(-c2cc3c(C(=O)NC)c(-c4ccc(F)cc4)oc3cc2N)c1)c1ccccc1` (centres unmarked), for which the half-maximal inhibitory concentration (IC50) in assay [1] (Table 1b) was less than 250 nM. Further, the EC50 in the assay on HCV replicon cells (Table 1b) is less than 250 nM.
For `CNC(=O)c1c(-c2ccc(F)cc2)oc2ccc(-c3cc(C(=O)NC4(c5ncc(C)o5)CC4)ccc3C)cc12`, the 50% inhibitory concentration (IC50) in assay [1] (Table 1d (class symbols)) was less than 20 nM. Besides, the EC50 with HCV replicon cells (24 h, Table 1d (class symbols)) was 1 to 250 nM.
For `CNC(=O)c1c(-c2ccc(F)cc2)oc2ccc(-c3cc(C(=O)NC4(c5ocnc5C)CC4)c(OC)cc3C)cc12`, in assay [1] (Table 1d (class symbols)), the half-maximal inhibitory concentration (IC50) was in the range of 1 to 250 nM. Moreover, the EC50 in the assay on HCV replicon cells (24 h, Table 1d (class symbols)) was 1 to 250 nM.
As for `CNC(=O)c1c(-c2ccc(F)cc2)oc2ccc(-c3cc(C(=O)NC4(c5ncc(C)o5)CC4)c(OC)cc3C)cc12`, the 50% inhibitory concentration (IC50) in assay [1] (Table 1d (class symbols)) was less than 20 nM. Also, the EC50 in the assay on HCV replicon cells (24 h, Table 1d (class symbols)) fell in the range of 1 to 250 nM.
As to `CNC(=O)c1c(-c2ccc(F)cc2)oc2ccc(-c3cc(C(=O)NC4(c5ccccn5)CC4)c(OCC(N)=O)cc3C)cc12`, the IC50 in assay [1] (Table 1d (class symbols)) was less than 20 nM. Further, the EC50 with HCV replicon cells (24 h, Table 1d (class symbols)) lay in the range of 1 to 250 nM.
In the same order, the values of `CCOc1cc(C)c(-c2ccc3oc(-c4ccc(F)cc4)c(C(=O)NC)c3c2)cc1C(=O)NC1(c2ccccn2)CC1` are 1 to 250 nM and 1 to 250 nM.
Take `CCCOc1cc(C)c(-c2ccc3oc(-c4ccc(F)cc4)c(C(=O)NC)c3c2)cc1C(=O)NC1(c2ccccn2)CC1`: in assay [1] (Table 1d (class symbols)), the IC50 lay within 1 to 250 nM. Also, the half-maximal effective concentration (EC50) in the assay with HCV replicon cells (24 h, Table 1d (class symbols)) was 1 to 250 nM.
For `CNC(=O)c1c(-c2ccc(F)cc2)oc2ccc(-c3cc(C(=O)NC4(c5ccccn5)CC4)c(OCC(C)C)cc3C)cc12`, the half-inhibitory concentration (IC50) in assay [1] (Table 1d (class symbols)) is 1 to 250 nM. The concentration for a half-maximal effect (EC50) with HCV replicon cells (24 h, Table 1d (class symbols)) fell in the range of 1 to 250 nM.
Take `CNC(=O)c1c(-c2ccc(F)cc2)oc2ccc(-c3cc(C(=O)NC4(c5ccccn5)CC4)c(OCC4CC4)cc3C)cc12`: the 50% inhibitory concentration (IC50) in assay [1] (Table 1d (class symbols)) fell in the range of 1 to 250 nM. The EC50 in the assay on HCV replicon cells (24 h, Table 1d (class symbols)) lay within 1 to 250 nM.
